# From publication PMC4854315, “Discovery of a novel allosteric inhibitor-binding site in ERK5: comparison with the canonical kinase hinge ATP-binding site” (Acta Crystallographica. Section D, Structural Biology, 2016)
# Columns and labels:
# Assay in all cases: Z'-LYTE kinase panel
# Format in all cases: biochemical
# [1] = target: T1, MINK1 (Homo sapiens, UniProt Q8N4C8)
# T1 construct: purchased ThermoFisher (SelectScreen, Z'-LYTE)
# Method: (§1) Compounds 2, 3 and 5 were tested for activity against the 225 kinases in the ThermoFisher standard kinase panel. The standard Z′-LYTE assay protocol (ThermoFisher) was used to measure the percentage inhibition at 10 µM compound concentration (details are provided in the supporting information).
# [2] = target: T2, PRKCZ (PKC zeta) (Homo sapiens, UniProt Q05513)
# T2 construct: purchased ThermoFisher (SelectScreen, Z'-LYTE)
# T2 sequence (Q05513 1-592): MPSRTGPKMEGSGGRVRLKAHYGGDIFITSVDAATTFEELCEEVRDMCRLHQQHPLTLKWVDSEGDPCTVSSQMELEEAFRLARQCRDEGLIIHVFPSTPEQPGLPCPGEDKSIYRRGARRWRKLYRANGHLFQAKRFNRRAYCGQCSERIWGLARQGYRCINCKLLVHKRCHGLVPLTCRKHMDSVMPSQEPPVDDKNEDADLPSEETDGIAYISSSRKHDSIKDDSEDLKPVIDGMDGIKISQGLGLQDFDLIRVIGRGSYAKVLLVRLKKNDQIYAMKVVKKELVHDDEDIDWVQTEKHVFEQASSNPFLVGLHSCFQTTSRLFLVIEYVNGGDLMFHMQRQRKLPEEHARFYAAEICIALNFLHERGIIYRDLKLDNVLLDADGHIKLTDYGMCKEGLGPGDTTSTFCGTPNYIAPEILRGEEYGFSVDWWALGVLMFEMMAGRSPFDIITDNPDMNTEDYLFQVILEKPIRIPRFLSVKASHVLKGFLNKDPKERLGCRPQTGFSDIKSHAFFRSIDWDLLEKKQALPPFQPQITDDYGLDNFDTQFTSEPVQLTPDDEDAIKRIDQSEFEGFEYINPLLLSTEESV
# Method: as §1
# [3] = target: T3, CLK2 (Homo sapiens, UniProt P49760)
# T3 construct: purchased ThermoFisher (SelectScreen, Z'-LYTE)
# T3 sequence (P49760 whole entry): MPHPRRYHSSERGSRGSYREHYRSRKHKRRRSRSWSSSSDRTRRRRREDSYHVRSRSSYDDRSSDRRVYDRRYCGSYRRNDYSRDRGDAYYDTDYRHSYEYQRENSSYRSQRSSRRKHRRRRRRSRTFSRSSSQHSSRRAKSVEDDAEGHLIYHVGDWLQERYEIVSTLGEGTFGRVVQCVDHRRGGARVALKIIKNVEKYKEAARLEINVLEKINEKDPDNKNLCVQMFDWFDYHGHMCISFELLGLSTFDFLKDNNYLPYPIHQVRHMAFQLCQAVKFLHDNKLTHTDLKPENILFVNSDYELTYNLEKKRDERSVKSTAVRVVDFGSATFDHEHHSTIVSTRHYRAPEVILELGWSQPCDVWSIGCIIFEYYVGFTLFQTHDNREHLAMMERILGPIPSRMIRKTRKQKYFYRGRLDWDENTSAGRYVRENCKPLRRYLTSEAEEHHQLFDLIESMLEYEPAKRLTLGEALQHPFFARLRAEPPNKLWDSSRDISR
# Method: as §1
# [4] = target: T4, ABL2 (Arg) (Homo sapiens, UniProt P42684)
# T4 construct: purchased ThermoFisher (SelectScreen, Z'-LYTE)
# T4 sequence (P42684 whole entry): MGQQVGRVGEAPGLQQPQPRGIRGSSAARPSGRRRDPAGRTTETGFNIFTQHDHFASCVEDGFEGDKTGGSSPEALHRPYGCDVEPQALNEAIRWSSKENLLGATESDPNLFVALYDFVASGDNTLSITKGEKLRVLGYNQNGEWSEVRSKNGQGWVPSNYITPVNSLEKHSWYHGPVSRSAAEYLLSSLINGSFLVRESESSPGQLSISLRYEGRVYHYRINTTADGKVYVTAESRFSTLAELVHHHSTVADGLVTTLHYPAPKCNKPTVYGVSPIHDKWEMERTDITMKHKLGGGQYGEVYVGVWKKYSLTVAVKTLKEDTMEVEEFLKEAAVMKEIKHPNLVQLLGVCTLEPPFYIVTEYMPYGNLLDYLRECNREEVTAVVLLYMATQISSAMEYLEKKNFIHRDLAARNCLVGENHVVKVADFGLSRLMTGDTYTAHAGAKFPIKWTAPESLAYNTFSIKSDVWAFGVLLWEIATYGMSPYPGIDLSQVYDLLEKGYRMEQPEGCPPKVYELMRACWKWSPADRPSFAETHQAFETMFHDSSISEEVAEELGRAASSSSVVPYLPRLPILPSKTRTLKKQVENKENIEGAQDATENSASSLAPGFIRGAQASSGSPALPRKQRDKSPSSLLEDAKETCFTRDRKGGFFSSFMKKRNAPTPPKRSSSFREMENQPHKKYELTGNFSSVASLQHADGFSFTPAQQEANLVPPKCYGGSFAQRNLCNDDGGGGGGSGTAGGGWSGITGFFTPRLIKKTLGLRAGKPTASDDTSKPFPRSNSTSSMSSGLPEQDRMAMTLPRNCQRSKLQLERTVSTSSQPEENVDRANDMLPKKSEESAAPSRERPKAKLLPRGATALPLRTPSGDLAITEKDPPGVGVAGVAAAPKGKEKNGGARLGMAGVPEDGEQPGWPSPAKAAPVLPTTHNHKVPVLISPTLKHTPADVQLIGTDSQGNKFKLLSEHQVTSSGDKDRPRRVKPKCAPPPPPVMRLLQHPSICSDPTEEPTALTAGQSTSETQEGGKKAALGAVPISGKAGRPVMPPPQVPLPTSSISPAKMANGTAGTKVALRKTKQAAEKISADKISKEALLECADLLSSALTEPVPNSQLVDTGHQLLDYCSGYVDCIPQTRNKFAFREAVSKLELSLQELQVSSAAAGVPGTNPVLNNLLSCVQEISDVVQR
# Method: as §1
# [5] = target: T5, HIPK2 (Homo sapiens, UniProt Q9H2X6)
# T5 construct: purchased ThermoFisher (SelectScreen, Z'-LYTE)
# Method: as §1
# [6] = target: T6, AKT1 (PKB alpha) (Homo sapiens, UniProt P31749)
# T6 construct: purchased ThermoFisher (SelectScreen, Z'-LYTE)
# T6 sequence (P31749 whole entry): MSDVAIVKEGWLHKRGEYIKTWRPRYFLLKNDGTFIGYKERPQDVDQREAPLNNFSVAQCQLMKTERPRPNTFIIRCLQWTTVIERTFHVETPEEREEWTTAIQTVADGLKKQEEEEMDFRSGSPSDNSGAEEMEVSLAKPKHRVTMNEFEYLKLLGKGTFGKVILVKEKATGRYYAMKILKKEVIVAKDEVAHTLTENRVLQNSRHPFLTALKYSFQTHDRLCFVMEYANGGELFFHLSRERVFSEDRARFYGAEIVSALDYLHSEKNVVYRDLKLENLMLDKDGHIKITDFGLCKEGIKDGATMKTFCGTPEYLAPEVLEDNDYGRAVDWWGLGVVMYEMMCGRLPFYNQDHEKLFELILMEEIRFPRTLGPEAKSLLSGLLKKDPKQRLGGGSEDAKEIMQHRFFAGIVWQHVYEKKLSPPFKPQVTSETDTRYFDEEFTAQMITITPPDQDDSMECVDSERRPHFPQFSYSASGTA
# Method: as §1
# [7] = target: T7, RPS6KA3 (RSK2) (Homo sapiens, UniProt P51812)
# T7 construct: purchased ThermoFisher (SelectScreen, Z'-LYTE)
# Method: as §1
# [8] = target: T8, MATK (HYL) (Homo sapiens, UniProt P42679)
# T8 construct: purchased ThermoFisher (SelectScreen, Z'-LYTE)
# T8 sequence (P42679 1-507): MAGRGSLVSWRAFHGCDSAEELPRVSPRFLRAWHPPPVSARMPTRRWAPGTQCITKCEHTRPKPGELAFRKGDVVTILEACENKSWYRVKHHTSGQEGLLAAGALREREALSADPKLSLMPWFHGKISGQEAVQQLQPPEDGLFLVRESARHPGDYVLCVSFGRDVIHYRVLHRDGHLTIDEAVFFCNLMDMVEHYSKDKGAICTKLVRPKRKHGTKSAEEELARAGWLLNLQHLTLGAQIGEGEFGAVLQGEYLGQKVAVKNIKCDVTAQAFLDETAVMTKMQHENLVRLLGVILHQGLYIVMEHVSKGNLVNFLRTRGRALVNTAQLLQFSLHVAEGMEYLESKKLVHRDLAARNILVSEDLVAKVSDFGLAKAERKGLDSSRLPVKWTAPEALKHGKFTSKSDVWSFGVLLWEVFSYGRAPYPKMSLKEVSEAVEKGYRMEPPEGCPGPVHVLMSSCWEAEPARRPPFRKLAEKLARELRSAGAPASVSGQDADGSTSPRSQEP
# Method: as §1
# [9] = target: T9, CDC42 BPB (MRCKB) (Homo sapiens, UniProt Q9Y5S2)
# T9 construct: purchased ThermoFisher (SelectScreen, Z'-LYTE)
# T9 sequence (Q9Y5S2 whole entry): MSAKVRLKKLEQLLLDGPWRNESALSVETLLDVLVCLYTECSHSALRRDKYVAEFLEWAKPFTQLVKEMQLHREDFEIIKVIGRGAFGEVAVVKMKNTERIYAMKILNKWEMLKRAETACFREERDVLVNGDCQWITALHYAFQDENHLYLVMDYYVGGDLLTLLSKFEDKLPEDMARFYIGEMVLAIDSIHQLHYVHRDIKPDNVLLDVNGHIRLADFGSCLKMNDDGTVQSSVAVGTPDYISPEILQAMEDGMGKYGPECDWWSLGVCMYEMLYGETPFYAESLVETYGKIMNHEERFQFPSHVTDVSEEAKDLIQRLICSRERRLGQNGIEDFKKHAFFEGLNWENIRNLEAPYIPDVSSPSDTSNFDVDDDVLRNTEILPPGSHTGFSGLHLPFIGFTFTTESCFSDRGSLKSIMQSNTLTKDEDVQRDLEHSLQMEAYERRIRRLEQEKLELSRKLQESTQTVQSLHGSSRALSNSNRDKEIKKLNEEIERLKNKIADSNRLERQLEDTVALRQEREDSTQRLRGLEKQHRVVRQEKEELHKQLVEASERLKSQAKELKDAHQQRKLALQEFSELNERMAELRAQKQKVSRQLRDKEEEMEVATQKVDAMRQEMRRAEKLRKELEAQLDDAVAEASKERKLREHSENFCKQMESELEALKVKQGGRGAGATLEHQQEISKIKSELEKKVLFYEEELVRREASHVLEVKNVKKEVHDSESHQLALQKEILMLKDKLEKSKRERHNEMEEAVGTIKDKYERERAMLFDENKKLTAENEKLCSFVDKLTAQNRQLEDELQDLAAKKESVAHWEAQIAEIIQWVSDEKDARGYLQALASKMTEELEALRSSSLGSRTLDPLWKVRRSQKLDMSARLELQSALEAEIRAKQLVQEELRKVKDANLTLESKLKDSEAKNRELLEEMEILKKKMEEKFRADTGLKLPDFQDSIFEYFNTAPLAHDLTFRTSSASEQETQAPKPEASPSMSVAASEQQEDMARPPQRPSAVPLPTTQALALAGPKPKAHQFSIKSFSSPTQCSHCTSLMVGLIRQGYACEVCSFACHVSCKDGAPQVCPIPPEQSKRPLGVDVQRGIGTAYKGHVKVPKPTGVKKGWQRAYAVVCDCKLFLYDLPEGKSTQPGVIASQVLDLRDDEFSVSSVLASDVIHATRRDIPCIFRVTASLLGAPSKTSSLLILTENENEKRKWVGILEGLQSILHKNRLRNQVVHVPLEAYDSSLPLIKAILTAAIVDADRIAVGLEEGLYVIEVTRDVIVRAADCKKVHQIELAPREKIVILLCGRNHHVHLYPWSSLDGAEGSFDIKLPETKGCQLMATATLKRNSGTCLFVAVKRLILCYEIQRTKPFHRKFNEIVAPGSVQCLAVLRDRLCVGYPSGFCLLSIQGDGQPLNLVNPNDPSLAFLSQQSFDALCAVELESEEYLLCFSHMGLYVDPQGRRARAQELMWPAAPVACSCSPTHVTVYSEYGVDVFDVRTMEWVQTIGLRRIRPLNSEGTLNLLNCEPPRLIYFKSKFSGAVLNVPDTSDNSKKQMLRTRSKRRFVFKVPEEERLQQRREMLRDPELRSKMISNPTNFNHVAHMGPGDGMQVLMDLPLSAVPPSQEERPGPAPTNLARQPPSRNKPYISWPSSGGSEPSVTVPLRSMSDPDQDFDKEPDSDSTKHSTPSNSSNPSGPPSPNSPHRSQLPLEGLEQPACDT
# Method: as §1
# [10] = target: T10, TBK1 (Homo sapiens, UniProt Q9UHD2)
# T10 construct: purchased ThermoFisher (SelectScreen, Z'-LYTE)
# T10 sequence (Q9UHD2 1-729): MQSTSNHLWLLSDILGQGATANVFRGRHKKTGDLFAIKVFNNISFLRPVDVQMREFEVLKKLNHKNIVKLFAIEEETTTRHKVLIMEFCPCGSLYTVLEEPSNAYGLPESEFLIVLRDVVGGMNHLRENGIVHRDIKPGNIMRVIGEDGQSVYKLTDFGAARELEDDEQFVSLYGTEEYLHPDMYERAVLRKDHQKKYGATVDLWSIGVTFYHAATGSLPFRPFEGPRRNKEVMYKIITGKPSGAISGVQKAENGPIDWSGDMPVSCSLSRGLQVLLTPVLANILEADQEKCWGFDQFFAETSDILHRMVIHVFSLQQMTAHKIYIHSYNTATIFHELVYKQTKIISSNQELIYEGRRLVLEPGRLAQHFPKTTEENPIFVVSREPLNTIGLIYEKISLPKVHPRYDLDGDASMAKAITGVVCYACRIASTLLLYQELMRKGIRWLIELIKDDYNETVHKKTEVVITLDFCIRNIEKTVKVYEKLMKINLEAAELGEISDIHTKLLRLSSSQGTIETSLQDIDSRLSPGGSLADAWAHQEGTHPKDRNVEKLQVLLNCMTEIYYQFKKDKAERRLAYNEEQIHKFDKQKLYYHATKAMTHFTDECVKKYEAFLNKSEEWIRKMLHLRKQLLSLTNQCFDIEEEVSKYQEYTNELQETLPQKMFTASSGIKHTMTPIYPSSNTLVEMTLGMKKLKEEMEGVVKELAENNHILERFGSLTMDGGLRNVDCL
# Method: as §1
# [11] = target: T11, RPS6KA1 (RSK1) (Homo sapiens, UniProt Q15418)
# T11 construct: purchased ThermoFisher (SelectScreen, Z'-LYTE)
# T11 sequence (Q15418 whole entry): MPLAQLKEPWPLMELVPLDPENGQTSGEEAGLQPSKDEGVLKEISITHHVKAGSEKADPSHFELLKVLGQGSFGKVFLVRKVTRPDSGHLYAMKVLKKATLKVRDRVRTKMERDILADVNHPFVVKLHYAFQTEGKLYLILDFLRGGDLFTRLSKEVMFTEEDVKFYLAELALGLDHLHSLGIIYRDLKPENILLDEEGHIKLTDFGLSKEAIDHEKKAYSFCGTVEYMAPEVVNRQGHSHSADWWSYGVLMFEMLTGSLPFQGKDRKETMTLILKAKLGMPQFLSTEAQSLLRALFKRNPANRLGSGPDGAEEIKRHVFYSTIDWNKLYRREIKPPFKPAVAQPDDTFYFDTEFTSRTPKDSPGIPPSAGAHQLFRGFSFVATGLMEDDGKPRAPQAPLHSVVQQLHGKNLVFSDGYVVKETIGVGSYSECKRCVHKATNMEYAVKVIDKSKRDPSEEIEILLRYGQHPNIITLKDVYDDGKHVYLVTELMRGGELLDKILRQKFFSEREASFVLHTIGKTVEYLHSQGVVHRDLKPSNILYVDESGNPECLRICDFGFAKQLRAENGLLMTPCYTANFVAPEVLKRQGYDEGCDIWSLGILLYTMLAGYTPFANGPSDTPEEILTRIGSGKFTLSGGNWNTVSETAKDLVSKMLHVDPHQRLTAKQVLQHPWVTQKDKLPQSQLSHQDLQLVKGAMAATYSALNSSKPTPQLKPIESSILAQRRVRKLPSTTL
# Method: as §1
# [12] = target: T12, SRPK2 (Homo sapiens, UniProt P78362)
# T12 construct: purchased ThermoFisher (SelectScreen, Z'-LYTE)
# Method: as §1
# [13] = target: T13, LYN B (Homo sapiens, UniProt P07948)
# T13 construct: purchased ThermoFisher (SelectScreen, Z'-LYTE)
# T13 sequence (P07948 1-491 isoform P07948-2): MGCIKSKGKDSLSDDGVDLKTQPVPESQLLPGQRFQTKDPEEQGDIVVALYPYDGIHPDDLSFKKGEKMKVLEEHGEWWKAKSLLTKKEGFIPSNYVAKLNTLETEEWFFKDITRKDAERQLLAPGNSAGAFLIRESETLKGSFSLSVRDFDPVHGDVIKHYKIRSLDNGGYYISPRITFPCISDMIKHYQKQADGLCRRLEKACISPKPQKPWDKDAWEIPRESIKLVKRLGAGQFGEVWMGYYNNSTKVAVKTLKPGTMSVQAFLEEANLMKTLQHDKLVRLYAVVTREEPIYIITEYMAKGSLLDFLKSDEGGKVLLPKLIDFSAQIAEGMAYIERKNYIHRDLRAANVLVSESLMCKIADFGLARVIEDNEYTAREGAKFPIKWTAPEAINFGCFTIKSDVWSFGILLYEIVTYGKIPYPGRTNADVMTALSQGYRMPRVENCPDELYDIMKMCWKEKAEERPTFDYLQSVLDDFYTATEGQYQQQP
# Method: as §1
compound,measurement,setting,value
"XMD8-92 [Compound 2, reference compound]",MINK1 % Inhibition,"[1]; 10 µM compound, ATP Km app",66%
same,PRKCZ (PKC zeta) % Inhibition,"[2]; 10 µM compound, ATP Km app",-2.33%
same,CLK2 % Inhibition,"[3]; 10 µM compound, ATP Km app",6%
same,ABL2 (Arg) % Inhibition,"[4]; 10 µM compound, ATP Km app",21%
same,HIPK2 % Inhibition,"[5]; 10 µM compound, ATP Km app",2%
same,AKT1 (PKB alpha) % Inhibition,"[6]; 10 µM compound, ATP Km app",41%
same,RPS6KA3 (RSK2) % Inhibition,"[7]; 10 µM compound, ATP Km app",98%
same,MATK (HYL) % Inhibition,"[8]; 10 µM compound, ATP Km app",2.46%
same,CDC42 BPB (MRCKB) % Inhibition,"[9]; 10 µM compound, ATP Km app",-11%
same,TBK1 % Inhibition,"[10]; 10 µM compound, ATP Km app",43%
same,RPS6KA1 (RSK1) % Inhibition,"[11]; 10 µM compound, ATP Km app",5.45%
same,SRPK2 % Inhibition,"[12]; 10 µM compound, ATP Km app",-19%
same,LYN B % Inhibition,"[13]; 10 µM compound, ATP Km app",39%
Cc1ncc(-c2nc(Nc3ccc(C(=O)NCCN4CCCCC4)cc3)ncc2F)n1C(C)C [Compound 3],inhibition at 10 µM,[1],88%
same,inhibition at 10 µM,[2],18%
same,inhibition at 10 µM,[3],92%
same,inhibition at 10 µM,[4],75%
same,inhibition at 10 µM,[5],93%
same,inhibition at 10 µM,[6],19%
same,inhibition at 10 µM,[7],81%
same,inhibition at 10 µM,[8],0.522%
same,inhibition at 10 µM,[9],8%
same,inhibition at 10 µM,[10],86%
same,inhibition at 10 µM,[11],69%
same,inhibition at 10 µM,[12],25%
same,inhibition at 10 µM,[13],91%
Cc1cc(Nc2nc(N)nn2C(=O)NC(C)C)ccc1Cl [Compound 5],inhibition at 10 µM,[1],21%
same,inhibition at 10 µM,[2],4%
same,inhibition at 10 µM,[3],39%
same,inhibition at 10 µM,[4],52%
same,inhibition at 10 µM,[5],45%
same,inhibition at 10 µM,[6],0.31%
same,inhibition at 10 µM,[7],37%
same,inhibition at 10 µM,[8],-1.63%
same,inhibition at 10 µM,[9],5.45%
same,inhibition at 10 µM,[10],27%
same,inhibition at 10 µM,[11],36%
same,inhibition at 10 µM,[12],-5%
same,inhibition at 10 µM,[13],35%
